Results reported in PMC4962012, “Pretrichodermamides D–F from a Marine Algicolous Fungus Penicillium sp. KMM 4672” (Marine Drugs, 2016).

Tests used:
[1] = MTT cytotoxicity assay, 22Rv1 cells; assay type: cell-based; conditions: human, 22Rv1 prostate cancer cells
Protocol: (§1) The human prostate cancer cells lines 22Rv1, PC-3, and LNCaP were purchased from ATCC. Cell lines were cultured according to the manufacturers instructions in 10% FBS/RPMI media (Invitrogen) with (for LNCaP) or without (for 22Rv1 and PC-3) 1 mM sodium pyruvate (Invitrogen). Cells were continuously kept in culture for a maximum of 3 months and were routinely inspected microscopically for stable phenotype and regularly checked for contamination with mycoplasma. Cell line authentication was performed by DSMZ (Braunschweig, Germany) using highly polymorphic short tandem repeat loci.
(§2) The in vitro cytotoxicity of individual substances was evaluated using the MTT (3-(4,5-dimethylthiazol-2-yl)-2,5-diphenyltetrazolium bromide) assay, which was performed as previously described. Cytotoxicity against CD-I mouse splenocytes was determined according to Freshney. Docetaxel was used as a reference substance.

[2] = MTT cytotoxicity assay, PC-3 cells; assay type: cell-based; conditions: human, PC-3 prostate cancer cells
Protocol: as §1, §2

[3] = MTT cytotoxicity assay, LNCaP cells; assay type: cell-based; conditions: human, LNCaP prostate cancer cells
Protocol: as §1, §2

[4] = test system: human prostate cancer 22Rv1 cells; assay: Apoptosis induction analysis (flow cytometry, PI staining, sub-G1 peak); assay type: cell-based; conditions: treatment with 1 µM for 48 h
Protocol: as §1
The cell cycle distribution was analyzed by flow cytometry using PI staining as described before with slight modifications. In brief, cells were pre-incubated overnight in 6-well plates (2 × 10^5 cells/well in 2 mL/well). The medium was changed to fresh medium containing different concentrations of the substances. After 48 h of treatment, cells were harvested with a trypsin-EDTA solution, fixed with 70% EtOH, stained, and analyzed by FACS. The results were quantitatively analyzed using Cell Quest Pro software (Version 5.2.1., BD Bioscience, Bedford, MA, USA). Cells appeared at sub-G1 peak were assumed as apoptotic.

CD-I mouse splenocytes = assay: Cytotoxicity against mouse splenocytes; assay type: cell-based; conditions: non-malignant murine splenocytes
Protocol: as §2

CD-I mouse erythrocytes = assay: Hemolytic activity; assay type: cell-based
Protocol: The hemolytic activity was evaluated using CD-I mouse erythrocytes as previously described.

[5] = test system: a number of different cancer cells; design: method as in PMID 26039736; conditions: up to 10 µM; cited from earlier work

## COc1ccc(C2SSC34CC5(O)C(Cl)C=CC(O)C5ON3C(=O)C2N(C)C4=O)c(O)c1OC (centres unmarked) [compound 5, N-methylpretrichodermamide B]
[1]
  IC50: 510 nM
[2]
  IC50: 5110 nM
[3]
  IC50: 1760 nM
[4]
  apoptosis: 31.3% ± 8.2
CD-I mouse splenocytes
  ED50 (cytotoxicity for splenocytes): 62100 nM
CD-I mouse erythrocytes; murine erythrocytes, up to 100 µM
  hemolytic activity: did not show hemolitic activity
CD-I mouse erythrocytes; non-malignant murine erythrocytes
  ED50 (erythrocytes): > 100000 nM
[5]
  cytotoxic effect against a number of different cancer cells: did not show any cytotoxic effect

## CC(=O)O[C@@]12CO[C@@H]1C[C@H](O)[C@@]1(C)C(=O)[C@H](O)C3=C(C)[C@@H](OC(=O)[C@H](O)[C@@H](NC(=O)OC(C)(C)C)c4ccccc4)C[C@@](O)([C@@H](OC(=O)c4ccccc4)[C@H]21)C3(C)C [docetaxel, reference compound]
[1]
  IC50: 13 nM
[2]
  IC50: 15 nM
[3]
  IC50: 4 nM
